Experimental findings from patent publication US12559506B2, “Indazole based compounds and associated methods of use” (Arvinas Operations, Inc., priority 2021, dated 2026) are described below.

The target of test [1] is T1, G2019S LRRK2 (Homo sapiens, UniProt Q5S007, G2019S).
T1 construct: expressed in transfected cells; host or cells: HEK293 (ATCC CRL-1573), transient transfection, mammalian expression vector with ubiquitin promoter
Description: LRRK2 degradation assay, HiBit-tagged G2019S LRRK2 expressed from plasmid in HEK293 cells (Nano-Glo Dual-Luciferase). In kind it is cell-based. As to conditions: 24 hours. A digest of the protocol: (§1)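 Degradation read as Nano-Glo HiBiT signal over firefly luciferase (cell number/viability) after 24 h compound exposure of transiently transfected HEK293 expressing C-terminally HiBiT-tagged wildtype or G2019S LRRK2. Data as % DMSO; DC50/Dmax fitted per plate, triplicate plates repeated twice.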

In test [2] the target is T2, wildtype LRRK2 (Homo sapiens, UniProt Q5S007).
T2 construct: expressed in transfected cells; host or cells: HEK293 (ATCC CRL-1573), transient transfection, mammalian expression vector with ubiquitin promoter
T2 sequence (Q5S007 whole entry): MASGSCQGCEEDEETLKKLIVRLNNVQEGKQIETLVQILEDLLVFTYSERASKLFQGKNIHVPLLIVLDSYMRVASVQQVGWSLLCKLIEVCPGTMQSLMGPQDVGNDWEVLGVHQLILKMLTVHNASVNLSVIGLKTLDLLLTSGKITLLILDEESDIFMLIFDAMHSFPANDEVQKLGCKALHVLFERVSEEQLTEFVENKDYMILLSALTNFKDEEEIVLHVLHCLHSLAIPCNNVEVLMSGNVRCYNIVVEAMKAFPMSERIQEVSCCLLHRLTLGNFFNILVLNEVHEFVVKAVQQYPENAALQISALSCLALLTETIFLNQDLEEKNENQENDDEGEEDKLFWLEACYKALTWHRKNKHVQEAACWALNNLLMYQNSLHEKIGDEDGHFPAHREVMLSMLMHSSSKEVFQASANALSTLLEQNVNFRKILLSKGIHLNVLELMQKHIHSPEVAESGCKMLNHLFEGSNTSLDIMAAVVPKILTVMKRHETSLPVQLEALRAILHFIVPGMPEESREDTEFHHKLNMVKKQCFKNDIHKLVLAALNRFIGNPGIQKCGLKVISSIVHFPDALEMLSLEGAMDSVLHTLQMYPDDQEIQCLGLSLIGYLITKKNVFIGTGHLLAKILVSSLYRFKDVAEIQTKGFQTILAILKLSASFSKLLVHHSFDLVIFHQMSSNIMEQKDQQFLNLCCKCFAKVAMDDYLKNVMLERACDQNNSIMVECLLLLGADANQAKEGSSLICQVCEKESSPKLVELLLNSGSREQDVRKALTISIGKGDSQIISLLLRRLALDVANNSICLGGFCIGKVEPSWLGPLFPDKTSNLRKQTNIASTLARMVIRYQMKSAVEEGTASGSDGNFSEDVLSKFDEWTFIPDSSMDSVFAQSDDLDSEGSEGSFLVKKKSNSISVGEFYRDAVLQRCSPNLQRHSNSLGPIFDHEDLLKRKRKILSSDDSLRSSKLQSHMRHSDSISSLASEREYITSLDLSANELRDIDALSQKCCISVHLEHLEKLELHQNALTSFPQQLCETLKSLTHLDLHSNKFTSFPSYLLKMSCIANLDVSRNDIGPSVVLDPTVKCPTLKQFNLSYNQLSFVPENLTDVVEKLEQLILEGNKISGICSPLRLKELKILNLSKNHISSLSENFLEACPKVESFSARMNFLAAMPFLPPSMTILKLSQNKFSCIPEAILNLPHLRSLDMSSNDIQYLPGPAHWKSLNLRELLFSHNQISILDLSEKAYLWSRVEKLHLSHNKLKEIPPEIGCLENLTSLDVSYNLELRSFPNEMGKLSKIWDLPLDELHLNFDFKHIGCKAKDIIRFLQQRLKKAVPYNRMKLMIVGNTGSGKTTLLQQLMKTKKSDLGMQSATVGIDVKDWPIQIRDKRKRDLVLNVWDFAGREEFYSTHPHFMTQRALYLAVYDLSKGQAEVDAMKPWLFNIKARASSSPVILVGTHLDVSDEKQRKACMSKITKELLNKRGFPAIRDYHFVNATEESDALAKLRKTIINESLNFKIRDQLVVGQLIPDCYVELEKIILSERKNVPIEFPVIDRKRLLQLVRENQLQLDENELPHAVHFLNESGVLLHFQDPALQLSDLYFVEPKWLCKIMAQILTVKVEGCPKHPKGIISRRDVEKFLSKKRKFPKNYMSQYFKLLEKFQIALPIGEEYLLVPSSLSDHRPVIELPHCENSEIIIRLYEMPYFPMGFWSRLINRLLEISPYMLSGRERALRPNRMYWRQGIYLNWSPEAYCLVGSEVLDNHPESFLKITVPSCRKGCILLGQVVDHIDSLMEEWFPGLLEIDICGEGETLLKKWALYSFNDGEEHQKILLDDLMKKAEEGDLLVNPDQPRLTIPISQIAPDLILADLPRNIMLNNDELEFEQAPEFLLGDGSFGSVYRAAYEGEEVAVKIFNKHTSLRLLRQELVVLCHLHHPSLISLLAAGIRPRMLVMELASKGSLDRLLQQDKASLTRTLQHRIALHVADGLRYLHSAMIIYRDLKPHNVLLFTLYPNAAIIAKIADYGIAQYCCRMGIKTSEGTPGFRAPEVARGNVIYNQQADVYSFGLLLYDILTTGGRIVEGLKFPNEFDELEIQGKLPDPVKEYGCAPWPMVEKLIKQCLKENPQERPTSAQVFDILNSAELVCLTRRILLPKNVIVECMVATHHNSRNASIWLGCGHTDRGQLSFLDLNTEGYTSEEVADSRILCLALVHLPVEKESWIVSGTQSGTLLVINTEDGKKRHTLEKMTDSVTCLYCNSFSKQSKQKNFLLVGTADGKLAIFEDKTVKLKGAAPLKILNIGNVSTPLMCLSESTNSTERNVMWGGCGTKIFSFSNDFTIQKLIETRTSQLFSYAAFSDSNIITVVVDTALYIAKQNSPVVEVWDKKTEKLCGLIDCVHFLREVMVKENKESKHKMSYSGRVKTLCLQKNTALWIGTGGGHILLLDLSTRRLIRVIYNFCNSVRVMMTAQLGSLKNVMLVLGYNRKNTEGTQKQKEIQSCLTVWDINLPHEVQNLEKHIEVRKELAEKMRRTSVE
Description: LRRK2 degradation assay, HiBit-tagged wildtype LRRK2 expressed from plasmid in HEK293 cells (Nano-Glo Dual-Luciferase). In kind it is cell-based. As to conditions: 24 hours; for Dmax: read-out: **WT Dmax (%); for DC50: read-out: *WT DC50. A digest of the protocol: as §1

Where [3] appears, read: HiBit-tagged G2019S LRRK2 in HEK293 cells.
Where [4] appears, read: HiBit-tagged wildtype LRRK2 in HEK293 cells.
Where [5] appears, read: HiBit-tagged G2019S LRRK2, HEK293 cells.
Setting [6] is: HiBit-tagged wildtype LRRK2, HEK293 cells.

Like-named read-outs stand apart in the source and are kept apart here.

T1 sequence (Q5S007 whole entry G2019S): as the sequence (Q5S007 whole entry) above, with G2019S counted along it

What is called DC50 is the concentration giving 50% degradation. For orientation: Dmax means the largest share of the target that was removed. Consider `CC1(Oc2ccc3[nH]nc(-c4cc(N5CCC(O[C@H]6CC[C@H](OC7CCN(c8ccc9c(c8)C(=O)N(C8CCC(=O)NC8=O)C9=O)CC7)CC6)CC5)ncn4)c3c2)CC1` (stereo partly drawn) [Compound 108, 2-(2,6-dioxo-3-piperidyl)-5-[4-[4-[[1-[6-[5-(1-methylcyclopropoxy)-1H-indazol-3-yl]pyrimidin-4-yl]-4-piperidyl]oxy]cyclohexoxy]-1-piperidyl]isoindoline-1,3-dione], for which, in test [1] (setting [3]), the DC50 is 0.01 to 0.05 µM and the Dmax was < 50%. Also, in test [2] (setting [4]), the Dmax fell in the range of 50 to 70% and the DC50 fell in the range of 0.01 to 0.05 µM.

Turning to `CC1(Oc2ccc3[nH]nc(-c4cc(N5CC(CN6CCN(CC7CCN(c8ccc9c(c8)C(=O)N(C8CCC(=O)NC8=O)C9=O)CC7)CC6)C5)ncn4)c3c2)CC1` (stereo not drawn) [Compound 129, 2-(2,6-dioxo-3-piperidyl)-5-[4-[[4-[[1-[6-[5-(1-methylcyclopropoxy)-1H-indazol-3-yl]pyrimidin-4-yl]azetidin-3-yl]methyl]piperazin-1-yl]methyl]-1-piperidyl]isoindoline-1,3-dione], in test [1] (setting [3]), the DC50 is < 0.01 µM and the Dmax is ≥ 70%. In test [2] (setting [4]), the Dmax is ≥ 70% and the DC50 is < 0.01 µM.

Turning to `CC1(Oc2ccc3[nH]nc(-c4cc(N5CCC(CN6CC[C@@H](CN7CCN(c8ccc9c(c8)C(=O)N(C8CCC(=O)NC8=O)C9=O)CC7)C6)CC5)ncn4)c3c2)CC1` (stereo partly drawn) [Compound 115, 2-(2,6-dioxopiperidin-3-yl)-5-(4-{[(3R)-1-[(1-{6-[5-(1-methylcyclopropoxy)-1H-indazol-3-yl]pyrimidin-4-yl}piperidin-4-yl)methyl]pyrrolidin-3-yl]methyl}piperazin-1-yl)-2,3-dihydro-1H-isoindole-1,3-dione], the DC50 in test [1] (setting [3]) and in test [2] (setting [4]) was < 0.01 µM in each case. The Dmax in test [1] (setting [3]) and in test [2] (setting [4]) was 50 to 70% throughout.

Regarding `C[C@H]1CN(c2cc(-c3n[nH]c4cc(F)c(OC5(C)CC5)cc34)ncn2)CCN1CC1CCN(CC2CCN(c3ccc4c(c3)C(=O)N(C3CCC(=O)NC3=O)C4=O)CC2)CC1` (stereo partly drawn) [Compound 71, 2-(2,6-dioxopiperidin-3-yl)-5-{4-[(4-{[(2S)-4-{6-[6-fluoro-5-(1-methylcyclopropoxy)-1H-indazol-3-yl]pyrimidin-4-yl}-2-methylpiperazin-1-yl]methyl}piperidin-1-yl)methyl]piperidin-1-yl}-2,3-dihydro-1H-isoindole-1,3-dione], the DC50 in test [1] (setting [3]) and in test [2] (setting [4]) was < 0.01 µM throughout. The Dmax in test [1] (setting [3]) is < 50%; in test [2] (setting [4]) it was 50 to 70%.

Turning to `CC1(Oc2ccc3[nH]nc(-c4ccnc(N5CCN(CC6(F)CCN(C(=O)C7CCN(c8ccc9c(c8)C(=O)N(C8CCC(=O)NC8=O)C9=O)CC7)CC6)CC5)c4)c3c2)CC1` (stereo not drawn) [Compound 97, 2-(2,6-dioxo-3-piperidyl)-5-[4-[4-fluoro-4-[[4-[4-[5-(1-methylcyclopropoxy)-1H-indazol-3-yl]-2-pyridyl]piperazin-1-yl]methyl]piperidine-1-carbonyl]-1-piperidyl]isoindoline-1,3-dione], the DC50 in test [1] (setting [3]) and in test [2] (setting [4]) was < 0.01 µM each time. For the same compound, the Dmax in test [1] (setting [3]) is < 50%; in test [2] (setting [4]) it was 50 to 70%.

As to `CC1(Oc2ccc3n[nH]c(-c4cc(N5CCC(CN6CCN(CC7(F)CN(c8ccc9c(c8)C(=O)N(C8CCC(=O)NC8=O)C9=O)C7)CC6)CC5)ncn4)c3c2)CC1` (stereo not drawn) [Compound 134, 2-(2,6-dioxo-3-piperidyl)-5-[3-fluoro-3-[[4-[[1-[6-[5-(1-methylcyclopropoxy)-2H-indazol-3-yl]pyrimidin-4-yl]-4-piperidyl]methyl]piperazin-1-yl]methyl]azetidin-1-yl]isoindoline-1,3-dione], in test [1] (setting [3]), the DC50 was < 0.01 µM and the Dmax lay in the range of 50 to 70%. Further, in test [2] (setting [4]), the Dmax fell in the range of 50 to 70% and the DC50 is < 0.01 µM.

On to `CC1(Oc2ccc3[nH]nc(-c4ccnc(N5CCC(C(=O)N6CCC(CC7CCN(c8ccc9c(c8)C(=O)N(C8CCC(=O)NC8=O)C9=O)CC7)CC6)CC5)c4)c3c2)CC1` (stereo not drawn) [Compound 89, 2-(2,6-dioxopiperidin-3-yl)-5-(4-{[1-(1-{4-[5-(1-methylcyclopropoxy)-1H-indazol-3-yl]pyridin-2-yl}piperidine-4-carbonyl)piperidin-4-yl]methyl}piperidin-1-yl)-2,3-dihydro-1H-isoindole-1,3-dione], for which, in test [1] (setting [3]), the DC50 lay in the range of 0.01 to 0.05 µM and the Dmax was < 50%. Besides, in test [2] (setting [4]), the Dmax was < 50% and the DC50 lay in the range of 0.01 to 0.05 µM.

As to `CC1(Oc2ccc3[nH]nc(-c4cc(N5CCN(C[C@@H]6CN(CCC7CCN(c8ccc9c(c8)C(=O)N(C8CCC(=O)NC8=O)C9=O)CC7)CCO6)CC5)ncn4)c3c2)CC1` (stereo partly drawn) [Compound 158, 2-(2,6-dioxo-3-piperidyl)-5-[4-[2-[(2R)-2-[[4-[6-[5-(1-methylcyclopropoxy)-1H-indazol-3-yl]pyrimidin-4-yl]piperazin-1-yl]methyl]morpholin-4-yl]ethyl]-1-piperidyl]isoindoline-1,3-dione], in test [1] (setting [5]), the DC50 is < 0.01 µM and the greatest degradation seen (Dmax) was ≥ 70%. In test [2] (setting [6]), the Dmax is ≥ 70% and the DC50 is < 0.01 µM.

Consider `CC1(Oc2ccc3[nH]nc(-c4cc(N5CCN(CC6(F)CCN(CC7CCN(c8ccc9c(c8)CN(C8CCC(=O)NC8=O)C9=O)CC7)CC6)CC5)ncn4)c3c2)CC1` (stereo not drawn) [Compound 110, 3-[5-[4-[[4-fluoro-4-[[4-[6-[5-(1-methylcyclopropoxy)-1H-indazol-3-yl]pyrimidin-4-yl]piperazin-1-yl]methyl]-1-piperidyl]methyl]-1-piperidyl]-1-oxo-isoindolin-2-yl]piperidine-2,6-dione], for which, in test [1] (setting [3]), the DC50 is < 0.01 µM and the Dmax is 50 to 70%. Further, in test [2] (setting [4]), the Dmax lay in the range of 50 to 70% and the DC50 was < 0.01 µM.

Consider `C[C@H]1CN(c2cc(-c3[nH]nc4ccc(OC5(C)CC5)cc34)ncn2)CCN1CC1CCN(CC2CCN(c3ccc4c(c3)CN(C3CCC(=O)NC3=O)C4=O)CC2)CC1` (stereo partly drawn) [Compound 109, 3-[5-[4-[[4-[[(2S)-2-methyl-4-[6-[5-(1-methylcyclopropoxy)-2H-indazol-3-yl]pyrimidin-4-yl]piperazin-1-yl]methyl]-1-piperidyl]methyl]-1-piperidyl]-1-oxo-isoindolin-2-yl]piperidine-2,6-dione], for which, in test [1] (setting [3]), the DC50 is < 0.01 µM and the Dmax fell in the range of 50 to 70%. Besides, in test [2] (setting [4]), the Dmax was 50 to 70% and the DC50 is < 0.01 µM.

With `CC1(Oc2ccc3[nH]nc(-c4cc(N5CC(CC6CCN(CC7CCN(c8ccc9c(c8)C(=O)N(C8CCC(=O)NC8=O)C9=O)CC7)CC6)C5)ncn4)c3c2)CC1` (stereo not drawn) [Compound 164, 2-(2,6-dioxo-3-piperidyl)-5-[4-[[4-[[1-[6-[5-(1-methylcyclopropoxy)-1H-indazol-3-yl]pyrimidin-4-yl]azetidin-3-yl]methyl]-1-piperidyl]methyl]-1-piperidyl]isoindoline-1,3-dione], the DC50 in test [1] (setting [5]) and in test [2] (setting [6]) was < 0.01 µM in each case. Also, the Dmax in test [1] (setting [5]) is ≥ 70%; in test [2] (setting [6]) it was 50 to 70%.

With `CC1(Oc2ccc3[nH]nc(-c4ccnc(N5CCOC6(CN(CC7CCN(CC8CCN(c9ccc%10c(c9)C(=O)N(C9CCC(=O)NC9=O)C%10=O)CC8)CC7)C6)C5)c4)c3c2)CC1` (stereo not drawn) [Compound 151, 2-(2,6-dioxo-3-piperidyl)-5-[4-[[4-[[8-[4-[5-(1-methylcyclopropoxy)-1H-indazol-3-yl]-2-pyridyl]-5-oxa-2,8-diazaspiro[3.5]nonan-2-yl]methyl]-1-piperidyl]methyl]-1-piperidyl]isoindoline-1,3-dione], in test [1] (setting [3]), the DC50 is < 0.01 µM and the Dmax lay within 50 to 70%. In test [2] (setting [4]), the Dmax was 50 to 70% and the DC50 is < 0.01 µM.

For `C[C@H]1CN(c2cc(-c3n[nH]c4ccc(OC5(C)CC5)cc34)ncn2)CCN1CC1CCN(CC2CCN(c3cc4c(cc3F)C(=O)N(C3CCC(=O)NC3=O)C4=O)CC2)CC1` (stereo partly drawn) [Compound 73, 2-(2,6-dioxo-3-piperidyl)-5-fluoro-6-[4-[[4-[[(2S)-2-methyl-4-[6-[5-(1-methylcyclopropoxy)-2H-indazol-3-yl]pyrimidin-4-yl]piperazin-1-yl]methyl]-1-piperidyl]methyl]-1-piperidyl]isoindoline-1,3-dione], in test [1] (setting [3]), the 50% degradation concentration (DC50) was < 0.01 µM and the Dmax was < 50%. Further, in test [2] (setting [4]), the Dmax is < 50% and the DC50 is < 0.01 µM.

As to `CC1(Oc2ccc3[nH]nc(-c4cc(N5CCN(C[C@@H]6CCN(CC7CCN(c8ccc9c(c8)C(=O)N(C8CCC(=O)NC8=O)C9=O)CC7)C(=O)C6)CC5)ncn4)c3c2)CC1` (single isomer, unassigned) [Compound 103], the DC50 in test [1] (setting [3]) and in test [2] (setting [4]) was < 0.01 µM in each case. Moreover, the maximal degradation (Dmax) in test [1] (setting [3]) and in test [2] (setting [4]) was 50 to 70% in each case.

In the case of `CC1(Oc2ccc3[nH]nc(-c4cc(N5CCC(CN6CCC(F)(CN7CCN(c8ccc9c(c8)C(=O)N(C8CCC(=O)NC8=O)C9=O)CC7)CC6)CC5)ncn4)c3c2)CC1` (stereo not drawn) [Compound 83, 2-(2,6-dioxo-3-piperidyl)-5-[4-[[4-fluoro-1-[[1-[6-[5-(1-methylcyclopropoxy)-1H-indazol-3-yl]pyrimidin-4-yl]-4-piperidyl]methyl]-4-piperidyl]methyl]piperazin-1-yl]isoindoline-1,3-dione], in test [1] (setting [3]), the DC50 was < 0.01 µM and the greatest degradation seen (Dmax) was ≥ 70%. For the same compound, in test [2] (setting [4]), the Dmax lay in the range of 50 to 70% and the DC50 is < 0.01 µM.
